Series [1] concerns P. aeruginosa (PiuA). The settings on record: cited from earlier work.
Series [2] addresses T1, HasAp (Pseudomonas aeruginosa, UniProt G3XD33). The series can be described thus: Binding affinity to HasAp by fluorescence quenching. The conditions noted are these: for Kd: read-out: KD (nM), binding affinities of ligands to HasAp, fluorescence quenching, 1 μM apo-HasAp, 20 mM sodium phosphate pH 7.4, 25° C.; for binding to HasAp weaker than heme: relative to heme. On the procedure:
Binding Affinity Determination by Fluorescence Quenching. Binding affinities were determined on an ISS K2 multifrequency fluorometer in L-format using 1 cm quartz cuvettes. To a 1 μM solution of apo-HasAp in 20 mM sodium phosphate buffer (pH 7.4, 25° C.) was titrated ligand of interest. Emission spectra were recorded (300-500 nm) following excitation at 295 nm. The decrease in maximum emission was plotted against the ligand concentration (accounting for dilution) and fit to one-site binding using GraphPad Prism 8.
Determine binding affinities (KD) by FQ. KD values of all synthesized compounds are calculated by FQ using previously described methods. Binding affinities are determined in a final volume of 200 μL in black flat-bottom 96-well plates using microplate reader. HasAp concentration is kept at 1.0 μM in Tris-HCl buffer (20 mM, pH 8.0). Inhibitors solvated in DMSO are added across a concentration range of 0.01 to 100 μM. The HasAp excitation (295 nm) emission spectrum is recorded from 300-500 nm. The KD values are calculated from plots of total binding vs. ligand concentration, where total binding corresponds to the fraction of binding sites represented by the decrease in fluorescence at the maximum emission (332 nm). All experiments are performed in triplicate.

In series [3] the test system is Has signaling cascade (hasR promoter). The series can be described thus: hasR-lacZ β-galactosidase transcriptional reporter assay. Format: cell-based, Pseudomonas aeruginosa. The settings on record: for transcriptional activation of the hasR promoter (Has signaling): 1 μM pre-formed HasAp complex, relative to heme (holo-HasAp). The method, then: Transcriptional Reporter Assay. The chromosomal fusions of the PhasR-lacZ and promoterless lacZ gene were previously constructed and used to report on transcriptional activation of the Has signaling cascade. For all β-gal assays, strains were grown overnight in 50 mL LB broth with shaking at 37° C. Cells were harvested by centrifugation and resuspended in M9 media. Strains were then inoculated at A600=0.05 in triplicate in 25 mL of M9 minimal medium and cultured for 3 h to deplete bacterial iron stores. Growth cultures were then supplemented with 1 μM of either holo-HasAp, GaPPIX-HasAp, FeSal-HasAp or GaSal-HasAp. Aliquots (1 mL) at 0 (just prior to supplementation), 2 and 5 h post supplementation were harvested and assayed for […] activity as described previously.
Testing new GaSal analogs (KD<1 μM) for inhibition of heme sensing by transcriptional reporter assays. Transcriptional reporter assays to determine inhibition of the dependent CSS cascade are performed. It was previously shown that GaSal-HasAp inhibits transcriptional activation of the has operon (FIG. 10B). Furthermore, as the deletion of hasR attenuates virulence, inhibition of the signaling pathway combined with decreased heme uptake is a viable therapeutic strategy. PAO1 hasR-lacZ cultures are grown under iron limiting conditions in defined media (M9 or SSM) pelleted and washed to remove exogenous HasAp. Cells are resuspended to a final OD600 of 0.05 and supplemented with 1.0 μM HasAp reconstituted with heme or selected GaSal derivatives. Samples are removed at various times (0.5-5 h) and assayed for β-Gal activity and corrected for differences in OD600. Competition assays are also performed in the presence of varying heme and salophen concentrations.

Series [4] has as its system P. aeruginosa PAO1 and mutants. Put plainly: Growth curves / antibacterial activity in M9 minimal medium. Format: cell-based, Pseudomonas aeruginosa. The conditions noted are these: M9 minimal media, 96-well plate. On the procedure: Growth Curves. P. aeruginosa strains were grown overnight in 50 mL LB Broth with shaking at 37° C. Cells were harvested by centrifugation and resuspended in M9 minimal medium. Strains were then inoculated at A600=0.05 in 10 mL M9 minimal medium and grown for 3 h to deplete bacterial iron stores. Cultures were then plated in 96-well plates (Costar clear, flat-bottom with lid, Corning Inc) at A600≈0.05 to a final volume of 200 μL in M9 medium. Supplements (2 μL) were added as 100× stock solutions. Growth curves were recorded at 600 nm with a Biotek Synergy™ HT plate reader over 16 h of growth with shaking at 37° C. To account for background absorbance, blank wells were prepared with the same supplements but only M9 medium without culture. The blank wells were subtracted from the average of three growth wells per condition.

The target in series [5] is T1, HasAp. The series can be described thus: Circular dichroism thermal denaturation of HasAp. The settings on record: circular dichroism at 222 nm, 10 μM HasAp. On the procedure: Circular Dichroism. Circular dichroism experiments were performed on a Jasco J-810 spectropolarimeter using 1 mm quartz cuvettes. All samples were recorded with 10 μM HasAp in 10 mM potassium phosphate (pH 7.4) at 25° C. from 190 to 260 nm at a scan rate of 50 nm/min, with each spectrum representing 5 accumulations. Data were acquired at […] resolution and 10 nm bandwidth. The mean residue ellipticity (degrees cm^2 dmol^−1) was calculated using CDPRO software as recommended by Jasco. Thermal denaturation studies were performed over a temperature range of 20-90° C. at 222 nm. Melting temperatures were determined by fitting denaturation data to a Boltzmann-Sigmoidal distribution in GraphPad Prism 8.

Series [6] addresses T1, HasAp. Put plainly: Saturation transfer difference NMR in PAO1 ΔhasAp supernatant. The series is classed as binding. The settings on record: GaSal 1 mM, HasAp 10 μM, PAO1 ΔhasAp supernatant. On the procedure:
(§1) Saturation Transfer Difference NMR. PAO1 ΔhasAp was cultured overnight from a single colony in LB Broth. The cells were harvested by centrifugation and resuspended in M9 Minimal Media. 10 mL of M9 were inoculated at A600˜0.05 and grown for 3 h. Cell-free supernatant was obtained by centrifugation and subsequent filter-sterilization by a […] syringe filter. Supernatant was then used as the solvent for subsequent STD experiments. Final sample volume contained 600 μL of supernatant with or without 10 μM HasAp (as a negative control) and 5% D2O for solvent locking.
(§2) The STD experiments were performed at 25° C. on an Agilent DD2 500 MHz spectrometer. The vendor supplied pulse sequences, dpfgse_satxfer.c was used, the on- and off-resonance fids are subtracted in-place through phase-cycling, to yield only the difference fid. Selective saturation was performed for 2.5 s and consisted of 50 ms Gaussian pulses separated by a 1-ms delay at a field strength of 50 Hz. […]
(§3) Determine the binding mode of GaSal and top derivatives by STD-, ^1H-^15N HSQC-NMR, and HDX-MS. […] Following incubation (4 h) 4,4-dimethyl-4-silapentane-1-sulfonic acid (DSS, 3 μL in D20) is added as internal standard and spectra recorded as reported. […] Combined chemical shift differences between the apo and each of the titration points are calculated using the following equation: […]

Series [7] relates to HasAp. Described as above. Format: binding, Pseudomonas aeruginosa. The settings on record: 1H NMR, 24 hr. On the procedure:
as §1, §2, §3

Values joined by “and” are separate entries in the source; they are usually repeats but may differ in a detail not shown here. Identical values can stand only once. “Also recorded” adds a separate entry of the source.

T1 sequence (G3XD33 entry or part of it): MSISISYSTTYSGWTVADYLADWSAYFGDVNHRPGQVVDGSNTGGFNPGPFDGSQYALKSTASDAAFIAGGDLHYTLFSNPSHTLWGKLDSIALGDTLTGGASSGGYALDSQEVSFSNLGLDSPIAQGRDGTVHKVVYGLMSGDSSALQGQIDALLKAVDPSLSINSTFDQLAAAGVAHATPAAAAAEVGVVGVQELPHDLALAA

On to `CC(C)(O/N=C(\C(=O)N[C@@H]1C(=O)N2C(C(=O)[O-])=C(C[N+]3(CCNC(=O)c4ccc(O)c(O)c4Cl)CCCC3)CS[C@H]12)c1csc(N)n1)C(=O)O` [Cefiderocol], for which the resistance rates in series [1] (at 10×MIC) is reported as < 7×10^−9. Besides, the “increase in MIC” value in series [1] (mutations with a deficiency in PiuA) is reported as around 20 fold.

Broadly, the Kd is a measure of binding affinity in units of concentration. For the compound `Oc1ccccc1C=Nc1ccccc1N=Cc1ccccc1O.[Fe+3]` [FeSal, FeSal Chloride], in series [2], the Kd is 1100 nM and 1050 nM; the “binding to HasAp weaker than heme” value was around 3 fold. For the same compound, the “transcriptional activation of the hasR promoter (Has signaling)” value (from here on “transcriptional activation”) in series [3] was “inhibited the holo-HasAp activation of the cell surface signaling cascade; also recorded: inhibition of transcriptional activation relative to heme or GaPPIX; also recorded: decreased transcriptional activation relative to heme”.

As to `C=CC1=C(C)c2cc3[nH]c(cc4nc(cc5[nH]c(cc1n2)c(C)c5CCC(=O)O)C(CCC(=O)O)=C4C)c(C)c3C=C.[Ga+3]` [GaPPIX, Gallium protoporphyrin IX], the dissociation constant (Kd) in series [2] was determined as 280 ± 30 nM. In series [4], the “growth of P. aeruginosa PAO1” value is given as “inhibits growth”. In addition, the “transcriptional activation” value in series [3] is “no inhibition of transcriptional activation relative to heme; also recorded: increased (2 h) or similar transcriptional activation to heme”.

Consider `Oc1ccccc1C=Nc1ccccc1N=Cc1ccccc1O.[Ga+3]` [GaSal, GaSalophen Nitrate], for which, in series [2], the Kd stood at 1110 ± 220 nM and the “binding to HasAp weaker than heme” value was around 3 fold. The “transcriptional activation” value in series [3] is reported as “inhibited the holo-HasAp activation of the cell surface signaling cascade; also recorded: inhibition of transcriptional activation relative to heme or GaPPIX; also recorded: decreased transcriptional activation relative to heme”. Besides, in series [3] (at 5 hours), the β-galactosidase production entry was “increased β-galactosidase when compared to FeSal”. In series [5], the “melting temperature of HasAp” value is 65 °C. Also, the “STD NMR saturation transfer from HasAp” value in series [6] is recorded as “saturation transfer among all protons of GaSal”. The “stability in PAO1 ΔhasAp supernatant” value in series [7] is reported as “still intact after 24 hr”.

`C=CC1=C(C)c2cc3[nH]c(cc4nc(cc5[nH]c(cc1n2)c(C)c5CCC(=O)O)C(CCC(=O)O)=C4C)c(C)c3C=C.[Fe+3]` [Heme]: the equilibrium dissociation constant (Kd) in series [2] turned out to be 350 ± 50 nM. In addition, the “melting temperature of HasAp” value in series [5] was above 90 °C.

These data come from patent US20230227476A1, “GALLIUM-SALOPHEN ANTIMICROBIAL COMPOUNDS AND METHODS OF USE THEREOF” (priority 2020, published 2023).
